Results taken from patent US20250129070A1, “BIFUNCTIONAL ANDROGEN RECEPTOR COMPOUNDS” (priority 2023, published 2025).

tested on: VCaP cells; experiment: VCaP growth inhibition assay; type: cell-based; conditions: 30 pM R1881, 9 days, CTG
Method: VCaP cells (ATCC Cat #CRL-2876) are plated at 1×10^4 cells per well of a white plastic 96-well cluster plate (Thermo Scientific Nunc Cat #165306) in 100 uL phenol red-free DMEM (Gibco Cat #21063-029) media with 5% CSS (Omega Scientific Cat #FB-04). Cluster plates are returned to the incubator (37*C/5% CO2) for 72 hours prior to treatment. Just prior to treatment, 100 μL of phenol red-free DMEM/5% CSS and […] R1881 (Sigma Cat #R0908-10 mg) was added to each well of the cluster plates (Final R1881 concentration=30 pM). Compounds (200×) were added to each well in a volume of 1 uL, with serial dilutions (1:5) from 20 uM to 2 pM (final concentrations in well are 100 nM to 10 fM). Cluster plates are returned to the incubator for 9 days.
After the 9-day treatment period, media was removed from the cluster plates by inversion and 100 uL room temperature CTG reagent (Promega Cat #G7573) is added to each well. The cluster plates are placed on a shaker and incubated at room temperature for 20 minutes. Following this shaking/incubation, cluster plates are read on a luminometer (BMG ClarioStar). IC50 values are obtained by graphing the RLU data vs. compound concentration with nonlinear regression 4-parameter logistic curves (GraphPad Prism).

Compound	IC50
CC(=O)N1CCc2c(c(Nc3ccc(-c4cnn(C)c4)cc3F)nn2C2CN(CCN3CCN(c4ncc(C(=O)NC5C(C)(C)C(Oc6ccc(C#N)c(Cl)c6)C5(C)C)cn4)CC3)C2)C1 (stereo not drawn) [Compound 164, 2-[4-[2-[3-[5-acetyl-3-[2-fluoro-4-(1-methylpyrazol-4-yl)anilino]-6,7-dihydro-4H-pyrazolo[4,3-c]pyridin-1-yl]azetidin-1-yl]ethyl]piperazin-1-yl]-N-[3-(3-chloro-4-cyano-phenoxy)-2,2,4,4-tetramethyl-cyclobutyl]pyrimidine-5-carboxamide]	≤ 0.1 nM
CC(=O)N1CCc2c(c(Nc3ccc(-c4cnn(C)c4)cc3F)nn2C2CN(C(=O)CN3CCN(c4ncc(C(=O)NC5C(C)(C)C(Oc6ccc(C#N)c(Cl)c6)C5(C)C)cn4)CC3)C2)C1 (stereo not drawn) [Compound 165, 2-[4-[2-[3-[5-acetyl-3-[2-fluoro-4-(1-methylpyrazol-4-yl)anilino]-6,7-dihydro-4H-pyrazolo[4,3-c]pyridin-1-yl]azetidin-1-yl]-2-oxo-ethyl]piperazin-1-yl]-N-[3-(3-chloro-4-cyano-phenoxy)-2,2,4,4-tetramethyl-cyclobutyl]pyrimidine-5-carboxamide]	≤ 0.1 nM
CC(=O)N1CCc2c(c(Nc3ccc(-c4cnn(C)c4)cc3F)nn2CCOC2CCN(c3ncc(C(=O)NC4C(C)(C)C(Oc5ccc(C#N)c(Cl)c5)C4(C)C)cn3)CC2)C1 (stereo not drawn) [Compound 2, 2-[4-[2-[5-acetyl-3-[2-fluoro-4-(1-methylpyrazol-4-yl)anilino]-6,7-dihydro-4H-pyrazolo[4,3-c]pyridin-1-yl]ethoxy]-1-piperidyl]-N-[3-(3-chloro-4-cyano-phenoxy)-2,2,4,4-tetramethyl-cyclobutyl]pyrimidine-5-carboxamide]	1 to 100 nM
CC(=O)N1CCc2c(c(N3CCCc4cc(-c5cnn(C)c5)c(C(F)F)cc43)nn2C2CCC3(CC2)CCN(c2ccc4c(n2)CN(C2C(C)(C)C(Oc5ccc(C#N)c(Cl)c5)C2(C)C)C4=O)CC3)C1 (stereo not drawn) [Compound 298, 4-[3-[2-[9-[5-acetyl-3-[7-(difluoromethyl)-6-(1-methylpyrazol-4-yl)-3,4-dihydro-2H-quinolin-1-yl]-6,7-dihydro-4H-pyrazolo[4,3-c]pyridin-1-yl]-3-azaspiro [5.5]undecan-3-yl]-5-oxo-7H-pyrrolo[3,4-b]pyridin-6-yl]-2,2,4,4-tetramethyl-cyclobutoxy]-2-chloro-benzonitrile]	> 100 nM
CC(=O)N1CCc2c(c(N3CCCc4cc(-c5cnn(C)c5)c(C(F)F)cc43)nn2C2CCN(C3CCN(c4ccc5c(n4)CN(C4C(C)(C)C(Oc6ccc(C#N)c(Cl)c6)C4(C)C)C5=O)CC3)CC2)C1 (stereo not drawn) [Compound 297, 4-[3-[2-[4-[4-[5-acetyl-3-[7-(difluoromethyl)-6-(1-methylpyrazol-4-yl)-3,4-dihydro-2H-quinolin-1-yl]-6,7-dihydro-4H-pyrazolo[4,3-c]pyridin-1-yl]-1-piperidyl]-1-piperidyl]-5-oxo-7H-pyrrolo[3,4-b]pyridin-6-yl]-2,2,4,4-tetramethyl-cyclobutoxy]-2-chloro-benzonitrile]	1 to 100 nM
CC(=O)N1CCc2c(c(Nc3ccc(-c4cnn(C)c4)cc3F)nn2C2CCN(CC3CCN(c4ncc(C(=O)NC5C(C)(C)C(Oc6ccc(C#N)c(Cl)c6)C5(C)C)cn4)CC3)C2)C1 (stereo not drawn) [Compound 7, 2-[4-[[3-[5-acetyl-3-[2-fluoro-4-(1-methylpyrazol-4-yl)anilino]-6,7-dihydro-4H-pyrazolo[4,3-c]pyridin-1-yl]pyrrolidin-1-yl]methyl]-1-piperidyl]-N-[3-(3-chloro-4-cyano-phenoxy)-2,2,4,4-tetramethyl-cyclobutyl]pyrimidine-5-carboxamide]	0.1 to 1 nM
CC(=O)N1CCc2c(c(N3CCCc4cc(-c5cnn(C)c5)c(C(F)F)cc43)nn2CCN2CCN(c3ncc(C(=O)NC4C(C)(C)C(Oc5ccc(C#N)c(Cl)c5)C4(C)C)cn3)CC2)C1 (stereo not drawn) [Compound 52, 2-[4-[2-[5-acetyl-3-[7-(difluoromethyl)-6-(1-methylpyrazol-4-yl)-3,4-dihydro-2H-quinolin-1-yl]-6,7-dihydro-4H-pyrazolo[4,3-c]pyridin-1-yl]ethyl]piperazin-1-yl]-N-[3-(3-chloro-4-cyano-phenoxy)-2,2,4,4-tetramethyl-cyclobutyl]pyrimidine-5-carboxamide]	0.1 to 1 nM
CC(=O)N1CCc2c(c(N3CCCc4cc(-c5cnn(C)c5)c(C(F)F)cc43)nn2C2CCN(CCOCc3ncc(C(=O)NC4C(C)(C)C(Oc5ccc(C#N)c(Cl)c5)C4(C)C)cn3)CC2)C1 (stereo not drawn) [Compound 88, 2-[2-[4-[5-acetyl-3-[7-(difluoromethyl)-6-(1-methylpyrazol-4-yl)-3,4-dihydro-2H-quinolin-1-yl]-6,7-dihydro-4H-pyrazolo[4,3-c]pyridin-1-yl]-1-piperidyl]ethoxymethyl]-N-[3-(3-chloro-4-cyano-phenoxy)-2,2,4,4-tetramethyl-cyclobutyl]pyrimidine-5-carboxamide]	0.1 to 1 nM

The next lines start with the values.

IC50	Compound
1 to 100 nM	COc1cc(OC2C(C)(C)C(NC(=O)c3ccc(N4CCC5(CC4)CC(Oc4ccc(-c6cc7c(cc6C(F)F)N(c6nn(C8CCOCC8)c8c6CN(C(C)=O)CC8)CCC7)cn4)C5)cc3)C2(C)C)ccc1C#N (stereo not drawn) [Compound 306, 4-[2-[[5-[1-(5-acetyl-1-tetrahydropyran-4-yl-6,7-dihydro-4H-pyrazolo[4,3-c]pyridin-3-yl)-7-(difluoromethyl)-3,4-dihydro-2H-quinolin-6-yl]-2-pyridyl]oxy]-7-azaspiro[3.5]nonan-7-yl]-N-[3-(4-cyano-3-methoxy-phenoxy)-2,2,4,4-tetramethyl-cyclobutyl]benzamide]
0.1 to 1 nM	COc1cc(OC2C(C)(C)C(NC(=O)c3ccc(N4CCC5(CC4)CCN(c4ccc(-c6cc7cccc(-c8nn(C9CCOCC9)c9c8CN(C(C)=O)CC9)c7cn6)cn4)CC5)cc3)C2(C)C)ccc1C#N (stereo not drawn) [Compound 266, 4-[3-[5-[8-(5-acetyl-1-tetrahydropyran-4-yl-6,7-dihydro-4H-pyrazolo[4,3-c]pyridin-3-yl)-3-isoquinolyl]-2-pyridyl]-3,9-diazaspiro[5.5]undecan-9-yl]-N-[3-(4-cyano-3-methoxy-phenoxy)-2,2,4,4-tetramethyl-cyclobutyl]benzamide]
≤ 0.1 nM	COc1cc(OC2C(C)(C)C(NC(=O)c3ccc(N4CC(N5CCC6(CCC(n7nc(N8CCCc9cc(-c%10cnn(C)c%10)c(C(F)F)cc98)c8c7CCN(C(C)=O)C8)CC6)CC5)C4)cc3)C2(C)C)ccc1C#N (stereo not drawn) [Compound 301, 4-[3-[9-[5-acetyl-3-[7-(difluoromethyl)-6-(1-methylpyrazol-4-yl)-3,4-dihydro-2H-quinolin-1-yl]-6,7-dihydro-4H-pyrazolo[4,3-c]pyridin-1-yl]-3-azaspiro[5.5]undecan-3-yl]azetidin-1-yl]-N-[3-(4-cyano-3-methoxy-phenoxy)-2,2,4,4-tetramethyl-cyclobutyl]benzamide]
0.1 to 1 nM	CC(=O)N1CCc2c(c(Nc3ccc(-c4cnn(C)c4)cc3F)nn2C2CCN(CCC3CCN(c4ncc(C(=O)NC5C(C)(C)C(Oc6ccc(C#N)c(Cl)c6)C5(C)C)cn4)CC3)CC2)C1 (stereo not drawn) [Compound 168, 2-[4-[2-[4-[5-acetyl-3-[2-fluoro-4-(1-methylpyrazol-4-yl)anilino]-6,7-dihydro-4H-pyrazolo[4,3-c]pyridin-1-yl]-1-piperidyl]ethyl]-1-piperidyl]-N-[3-(3-chloro-4-cyano-phenoxy)-2,2,4,4-tetramethyl-cyclobutyl]pyrimidine-5-carboxamide]
0.1 to 1 nM	COc1cc(OC2C(C)(C)C(NC(=O)c3ccc(N4CCC(N5CCC(n6cc(-c7cc8cccc(-c9nn(C%10CCOCC%10)c%10c9CN(C(C)=O)CC%10)c8cn7)cn6)CC5)CC4)cc3)C2(C)C)ccc1C#N (stereo not drawn) [Compound 270, 4-[4-[4-[4-[8-(5-acetyl-1-tetrahydropyran-4-yl-6,7-dihydro-4H-pyrazolo[4,3-c]pyridin-3-yl)-3-isoquinolyl]pyrazol-1-yl]-1-piperidyl]-1-piperidyl]-N-[3-(4-cyano-3-methoxy-phenoxy)-2,2,4,4-tetramethylcyclobutyl]benzamide]
≤ 0.1 nM	COc1cc(OC2C(C)(C)C(NC(=O)c3ccc(N4CCC(N5CCC6(CCC(n7nc(N8CCCc9cc(-c%10cnn(C)c%10)c(C(F)F)cc98)c8c7CCN(C(C)=O)C8)CC6)CC5)CC4)cc3)C2(C)C)ccc1C#N (stereo not drawn) [Compound 300, 4-[4-[9-[5-acetyl-3-[7-(difluoromethyl)-6-(1-methylpyrazol-4-yl)-3,4-dihydro-2H-quinolin-1-yl]-6,7-dihydro-4H-pyrazolo[4,3-c]pyridin-1-yl]-3-azaspiro[5.5]undecan-3-yl]-1-piperidyl]-N-[3-(4-cyano-3-methoxy-phenoxy)-2,2,4,4-tetramethyl-cyclobutyl]benzamide]
0.1 to 1 nM	COc1cc(OC2C(C)(C)C(NC(=O)c3ccc(N4CCC5(CCC(n6cc(-c7cc8cccc(-c9nn(C%10CCOCC%10)c%10c9CN(C(C)=O)CC%10)c8cn7)cn6)CC5)CC4)cc3)C2(C)C)ccc1C#N (stereo not drawn) [Compound 269, 4-[9-[4-[8-(5-acetyl-1-tetrahydropyran-4-yl-6,7-dihydro-4H-pyrazolo[4,3-c]pyridin-3-yl)-3-isoquinolyl]pyrazol-1-yl]-3-azaspiro[5.5]undecan-3-yl]-N-[3-(4-cyano-3-methoxy-phenoxy)-2,2,4,4-tetramethyl-cyclobutyl]benzamide]
